Reference: the NIST ThermoML archive (doi:10.1021/je700261b)

Test: xn = mol fraction of the nth substance listed
Details: Liquid

CCCCO [butan-1-ol] + O=C=O
Details | mass density [kg/m3]
323.07 K, 16977 kPa, x2 = 0.0857 | 807.17
323.07 K, 18030 kPa, x2 = 0.0857 | 808.01
323.07 K, 18995 kPa, x2 = 0.0857 | 808.74
323.07 K, 19987 kPa, x2 = 0.0857 | 809.54
323.07 K, 21040 kPa, x2 = 0.0857 | 810.38
323.07 K, 21992 kPa, x2 = 0.0857 | 811.09
323.07 K, 23011 kPa, x2 = 0.0857 | 811.87
323.07 K, 24000 kPa, x2 = 0.0857 | 812.6
323.07 K, 25007 kPa, x2 = 0.0857 | 813.42
323.1 K, 10109 kPa, x2 = 0.4972 | 818.96
323.1 K, 11078 kPa, x2 = 0.4972 | 820.55
323.1 K, 11078 kPa, x2 = 0.5965 | 822.9
323.1 K, 12051 kPa, x2 = 0.4972 | 822.08
323.1 K, 12072 kPa, x2 = 0.5965 | 825.03
323.1 K, 12077 kPa, x2 = 0.8663 | 777.48
323.1 K, 13046 kPa, x2 = 0.8663 | 787.33
323.1 K, 13049 kPa, x2 = 0.4972 | 823.64
323.1 K, 13059 kPa, x2 = 0.5965 | 827.1
323.1 K, 14029 kPa, x2 = 0.8663 | 796.15
323.1 K, 14053 kPa, x2 = 0.4972 | 825.18
323.1 K, 14067 kPa, x2 = 0.5965 | 829.16
323.1 K, 15041 kPa, x2 = 0.4972 | 826.62
323.1 K, 15050 kPa, x2 = 0.8663 | 804.37
323.1 K, 15063 kPa, x2 = 0.5965 | 831.15
323.1 K, 16046 kPa, x2 = 0.5965 | 833.04
323.1 K, 16058 kPa, x2 = 0.4972 | 828.14
323.1 K, 16077 kPa, x2 = 0.8663 | 811.86
323.1 K, 17030 kPa, x2 = 0.5965 | 834.9
323.1 K, 17044 kPa, x2 = 0.8663 | 818.37
323.1 K, 17051 kPa, x2 = 0.4972 | 829.54
323.1 K, 18024 kPa, x2 = 0.8663 | 824.54
323.1 K, 18049 kPa, x2 = 0.5965 | 836.78
323.1 K, 18061 kPa, x2 = 0.4972 | 830.96
323.1 K, 19022 kPa, x2 = 0.4972 | 832.33
323.1 K, 19033 kPa, x2 = 0.8663 | 830.52
323.1 K, 19044 kPa, x2 = 0.5965 | 838.57
323.1 K, 20021 kPa, x2 = 0.4972 | 833.69
323.1 K, 20028 kPa, x2 = 0.8663 | 835.95
323.1 K, 20039 kPa, x2 = 0.5965 | 840.32
323.1 K, 21026 kPa, x2 = 0.8663 | 841.13
323.1 K, 21047 kPa, x2 = 0.4972 | 835.06
323.1 K, 21064 kPa, x2 = 0.5965 | 842.09
323.1 K, 22036 kPa, x2 = 0.4972 | 836.36
323.1 K, 22041 kPa, x2 = 0.5965 | 843.75
323.1 K, 22054 kPa, x2 = 0.8663 | 846.3
323.1 K, 23023 kPa, x2 = 0.5965 | 845.38
323.1 K, 23023 kPa, x2 = 0.8663 | 850.85
323.1 K, 23045 kPa, x2 = 0.4972 | 837.69
323.1 K, 23996 kPa, x2 = 0.4972 | 838.91
323.1 K, 24006 kPa, x2 = 0.8663 | 855.33
323.1 K, 24008 kPa, x2 = 0.5965 | 847
323.1 K, 25012 kPa, x2 = 0.4972 | 840.21
323.1 K, 25040 kPa, x2 = 0.5965 | 848.65
323.1 K, 25041 kPa, x2 = 0.8663 | 859.75
332.94 K, 1010 kPa, x2 = 0.0251 | 781.57
332.94 K, 2077 kPa, x2 = 0.0251 | 782.55
332.94 K, 3046 kPa, x2 = 0.0251 | 783.47
332.94 K, 3990 kPa, x2 = 0.0251 | 784.3
332.94 K, 5002 kPa, x2 = 0.0251 | 785.22
332.94 K, 6026 kPa, x2 = 0.0251 | 786.15
332.94 K, 6975 kPa, x2 = 0.0251 | 786.98
332.94 K, 8009 kPa, x2 = 0.0251 | 787.91
332.94 K, 9084 kPa, x2 = 0.0251 | 788.83
332.94 K, 9985 kPa, x2 = 0.0251 | 789.62
332.94 K, 11024 kPa, x2 = 0.0251 | 790.52
332.94 K, 12040 kPa, x2 = 0.0251 | 791.34
332.94 K, 12968 kPa, x2 = 0.0251 | 792.12
332.94 K, 12999 kPa, x2 = 0.9698 | 600.03
332.94 K, 13994 kPa, x2 = 0.0251 | 792.95
332.94 K, 14036 kPa, x2 = 0.9698 | 638.84
332.94 K, 15021 kPa, x2 = 0.9698 | 667.05
332.94 K, 15041 kPa, x2 = 0.0251 | 793.85
332.94 K, 16014 kPa, x2 = 0.9698 | 689.92
332.94 K, 16061 kPa, x2 = 0.0251 | 794.54
332.94 K, 17001 kPa, x2 = 0.0251 | 795.37
332.94 K, 17022 kPa, x2 = 0.9698 | 709.37
332.94 K, 18009 kPa, x2 = 0.9698 | 725.81
332.94 K, 18031 kPa, x2 = 0.0251 | 796.18
332.94 K, 19010 kPa, x2 = 0.9698 | 740.47
332.94 K, 19042 kPa, x2 = 0.0251 | 796.95
332.94 K, 20027 kPa, x2 = 0.0251 | 797.73
332.94 K, 20028 kPa, x2 = 0.9698 | 753.7
332.94 K, 20987 kPa, x2 = 0.0251 | 798.46
332.94 K, 21042 kPa, x2 = 0.9698 | 765.72
332.94 K, 21997 kPa, x2 = 0.9698 | 776.05
332.94 K, 22013 kPa, x2 = 0.0251 | 799.22
332.94 K, 22983 kPa, x2 = 0.9698 | 785.85
332.94 K, 23023 kPa, x2 = 0.0251 | 800
332.94 K, 23838 kPa, x2 = 0.9698 | 793.78
332.94 K, 24078 kPa, x2 = 0.0251 | 800.8
332.94 K, 25033 kPa, x2 = 0.0251 | 801.51
332.96 K, 2025 kPa, x2 = 0.0857 | 785.34
332.96 K, 3025 kPa, x2 = 0.0857 | 786.35
332.96 K, 3995 kPa, x2 = 0.0857 | 787.3
332.96 K, 5006 kPa, x2 = 0.0857 | 788.3
332.96 K, 6029 kPa, x2 = 0.0857 | 789.27
332.96 K, 6996 kPa, x2 = 0.0857 | 790.2
332.96 K, 8001 kPa, x2 = 0.0857 | 791.2
332.96 K, 9060 kPa, x2 = 0.0857 | 792.17
332.96 K, 10005 kPa, x2 = 0.0857 | 793.04
332.96 K, 11020 kPa, x2 = 0.0857 | 793.96
332.96 K, 12043 kPa, x2 = 0.0857 | 794.89
332.96 K, 13021 kPa, x2 = 0.0857 | 795.74
332.96 K, 14023 kPa, x2 = 0.0857 | 796.64
332.96 K, 15013 kPa, x2 = 0.0857 | 797.55
332.96 K, 15989 kPa, x2 = 0.0857 | 798.3
332.96 K, 17015 kPa, x2 = 0.0857 | 799.17
332.96 K, 18001 kPa, x2 = 0.0857 | 799.98
332.96 K, 18996 kPa, x2 = 0.0857 | 800.8
332.96 K, 20012 kPa, x2 = 0.0857 | 801.65
332.96 K, 21010 kPa, x2 = 0.0857 | 802.47
332.96 K, 22025 kPa, x2 = 0.0857 | 803.27
332.96 K, 22983 kPa, x2 = 0.0857 | 804.05
332.96 K, 24061 kPa, x2 = 0.0857 | 804.91
332.96 K, 25000 kPa, x2 = 0.0857 | 805.68
332.99 K, 11100 kPa, x2 = 0.4972 | 807.58
332.99 K, 12062 kPa, x2 = 0.4972 | 809.21
332.99 K, 13082 kPa, x2 = 0.4972 | 810.88
332.99 K, 14087 kPa, x2 = 0.8663 | 752.33
332.99 K, 14115 kPa, x2 = 0.4972 | 812.58
332.99 K, 15053 kPa, x2 = 0.8663 | 762.95
332.99 K, 15061 kPa, x2 = 0.4972 | 814.12
332.99 K, 16035 kPa, x2 = 0.4972 | 815.66
332.99 K, 16081 kPa, x2 = 0.8663 | 772.94
332.99 K, 17073 kPa, x2 = 0.8663 | 781.43
332.99 K, 17108 kPa, x2 = 0.4972 | 817.32
332.99 K, 18040 kPa, x2 = 0.4972 | 818.75
332.99 K, 18052 kPa, x2 = 0.8663 | 789.26
332.99 K, 19036 kPa, x2 = 0.4972 | 820.22
332.99 K, 19049 kPa, x2 = 0.8663 | 796.49
332.99 K, 20021 kPa, x2 = 0.8663 | 803.04
332.99 K, 20051 kPa, x2 = 0.4972 | 821.73
332.99 K, 21046 kPa, x2 = 0.8663 | 809.49
332.99 K, 21048 kPa, x2 = 0.4972 | 823.17
332.99 K, 22048 kPa, x2 = 0.4972 | 824.6
332.99 K, 22064 kPa, x2 = 0.8663 | 815.51
332.99 K, 23005 kPa, x2 = 0.8663 | 820.74
332.99 K, 23047 kPa, x2 = 0.4972 | 826
332.99 K, 24018 kPa, x2 = 0.4972 | 827.36
332.99 K, 24028 kPa, x2 = 0.8663 | 826.19
332.99 K, 25056 kPa, x2 = 0.4972 | 828.77
332.99 K, 25067 kPa, x2 = 0.8663 | 831.43
333 K, 12077 kPa, x2 = 0.5965 | 809.05
333 K, 13047 kPa, x2 = 0.5965 | 811.32
333 K, 14101 kPa, x2 = 0.5965 | 813.7
333 K, 15079 kPa, x2 = 0.5965 | 815.86
333 K, 16069 kPa, x2 = 0.5965 | 817.96
333 K, 17045 kPa, x2 = 0.5965 | 820
333 K, 18064 kPa, x2 = 0.5965 | 822.1
333 K, 19045 kPa, x2 = 0.5965 | 824.02
333 K, 20044 kPa, x2 = 0.5965 | 825.94
333 K, 21039 kPa, x2 = 0.5965 | 827.8
333 K, 22043 kPa, x2 = 0.5965 | 829.66
333 K, 23048 kPa, x2 = 0.5965 | 831.48
333 K, 24011 kPa, x2 = 0.5965 | 833.21
333 K, 25086 kPa, x2 = 0.5965 | 835.1
333.08 K, 6035 kPa, x2 = 0.1842 | 792
333.08 K, 7047 kPa, x2 = 0.1842 | 793.11
333.08 K, 8021 kPa, x2 = 0.1842 | 794.16
333.08 K, 9035 kPa, x2 = 0.1842 | 795.25
333.08 K, 10030 kPa, x2 = 0.1842 | 796.3
333.08 K, 11057 kPa, x2 = 0.1842 | 797.37
333.08 K, 12025 kPa, x2 = 0.1842 | 798.41
333.08 K, 13041 kPa, x2 = 0.1842 | 799.39
333.08 K, 14034 kPa, x2 = 0.1842 | 800.34
333.08 K, 15074 kPa, x2 = 0.1842 | 801.36
333.08 K, 16022 kPa, x2 = 0.1842 | 802.27
